Assay results published in ChEMBL document CHEMBL5724914, “Linking interpersonal differences in gut microbiota composition and drug biotransformation activity” (2024).

Tests used:
[1] = (§1) The drug is tested on Z-029 corresponding to rat gut metagenome with ENA study accession number: PRJEB37062 and ENA sample accession number: ERS12561828 for biotransformation under anaerobic condition. The drug concentrations were measured over 9 timepoints collected between 0 and 24 hours of incubation by liquid-chromatography-coupled mass spectrometry (LC–MS); settings: 2 µM
[2] = as §1, with “Z-026” for “Z-029”, “to” for “to rat gut”, “ERS12561825” for “ERS12561828”; settings: 2 µM
[3] = as §1, with “on Z-024” for “on Z-029”, “to pig” for “to rat”, “number: ERS12561823” for “number: ERS12561828”; settings: 2 µM
[4] = as §1, with “on Z-022” for “on Z-029”, “to mouse” for “to rat”, “number: ERS12561821” for “number: ERS12561828”; settings: 2 µM
[5] = as §1, with “on Z-009” for “on Z-029”, “to pig” for “to rat”, “number: ERS12561809” for “number: ERS12561828”; settings: 2 µM
[6] = as §1, with “Z-004” for “Z-029”, “to” for “to rat gut”, “ERS12561804” for “ERS12561828”; settings: 2 µM
[7] = as §1, with “on Z-001” for “on Z-029”, “to mouse” for “to rat”, “number: ERS12561801” for “number: ERS12561828”; settings: 2 µM
[8] = as §1, with “on WLS-370” for “on Z-029”, “to human” for “to rat”, “number: ERS12561793” for “number: ERS12561828”; settings: 2 µM
[9] = as §1, with “on WLS-090” for “on Z-029”, “to human” for “to rat”, “number: ERS12561753” for “number: ERS12561828”; settings: 2 µM
[10] = as §1, with “on WLS-086” for “on Z-029”, “to human” for “to rat”, “number: ERS12561752” for “number: ERS12561828”; settings: 2 µM
[11] = as §1, with “on WLS-027” for “on Z-029”, “to human” for “to rat”, “number: ERS12561744” for “number: ERS12561828”; settings: 2 µM
[12] = human gut metagenome, 24 h, 2 µM
[13] = human gut metagenome, 24 h, 2 µM; remark: listed apart in the source
[14] = human gut metagenome, 24 h, 2 µM; remark: listed apart in the source
[15] = human gut metagenome, 24 h, 2 µM; remark: listed apart in the source
[16] = human gut metagenome, 24 h, 2 µM; remark: listed apart in the source
[17] = human gut metagenome, 24 h, 2 µM; remark: listed apart in the source
[18] = human gut metagenome, 24 h, 2 µM; remark: listed apart in the source
[19] = human gut metagenome, 24 h, 2 µM; remark: listed apart in the source
[20] = human gut metagenome, 24 h, 2 µM; remark: listed apart in the source
Further: call rule not given here.

SMILES: CCN(CC)CCOCCOC(=O)C1(c2ccccc2)CCCC1.O=C(O)CC(O)(CC(=O)O)C(=O)O [CARBETAPENTANE CITRATE]
- Bacterial Biotransformation [1]: Compound NOT metabolized
- Bacterial Biotransformation [2]: Compound NOT metabolized
- Bacterial Biotransformation [3]: Compound metabolized
- Bacterial Biotransformation [4]: Compound metabolized
- Bacterial Biotransformation [5]: Compound metabolized
- Bacterial Biotransformation [6]: Compound metabolized
- Bacterial Biotransformation [7]: Compound NOT metabolized
- Bacterial Biotransformation [8]: Compound metabolized
- Bacterial Biotransformation [9]: Compound metabolized
- Bacterial Biotransformation [10]: Compound NOT metabolized
- Bacterial Biotransformation [11]: Compound metabolized
- Bacterial Biotransformation [12]: Compound metabolized
- Bacterial Biotransformation [13]: Compound NOT metabolized
- Bacterial Biotransformation [14]: Compound metabolized
- Bacterial Biotransformation [15]: Compound metabolized
- Bacterial Biotransformation [16]: Compound metabolized
- Bacterial Biotransformation [17]: Compound metabolized
- Bacterial Biotransformation [18]: Compound metabolized
- Bacterial Biotransformation [19]: Compound metabolized
- Bacterial Biotransformation [20]: Compound metabolized

SMILES: O=C(O)COCCN1CCN(C(c2ccccc2)c2ccc(Cl)cc2)CC1 (stereo not given) [CETIRIZINE]
- Bacterial Biotransformation [1]: Compound NOT metabolized
- Bacterial Biotransformation [2]: Compound NOT metabolized
- Bacterial Biotransformation [3]: Compound metabolized
- Bacterial Biotransformation [4]: Compound metabolized
- Bacterial Biotransformation [5]: Compound metabolized
- Bacterial Biotransformation [6]: Compound metabolized
- Bacterial Biotransformation [7]: Compound NOT metabolized
- Bacterial Biotransformation [8]: Compound metabolized
- Bacterial Biotransformation [9]: Compound metabolized
- Bacterial Biotransformation [10]: Compound metabolized
- Bacterial Biotransformation [11]: Compound metabolized
- Bacterial Biotransformation [12]: Compound metabolized
- Bacterial Biotransformation [13]: Compound metabolized
- Bacterial Biotransformation [14]: Compound metabolized
- Bacterial Biotransformation [15]: Compound metabolized
- Bacterial Biotransformation [16]: Compound metabolized
- Bacterial Biotransformation [17]: Compound metabolized
- Bacterial Biotransformation [18]: Compound metabolized
- Bacterial Biotransformation [19]: Compound metabolized
- Bacterial Biotransformation [20]: Compound metabolized

SMILES: CN/C(=N/CCSCc1nc[nH]c1C)NC#N [CIMETIDINE]
- Bacterial Biotransformation [1]: Compound NOT metabolized
- Bacterial Biotransformation [2]: Compound NOT metabolized
- Bacterial Biotransformation [3]: Compound NOT metabolized
- Bacterial Biotransformation [4]: Compound NOT metabolized
- Bacterial Biotransformation [5]: Compound NOT metabolized
- Bacterial Biotransformation [6]: Compound NOT metabolized
- Bacterial Biotransformation [7]: Compound NOT metabolized
- Bacterial Biotransformation [8]: Compound NOT metabolized
- Bacterial Biotransformation [9]: Compound metabolized
- Bacterial Biotransformation [10]: Compound metabolized
- Bacterial Biotransformation [11]: Compound metabolized
- Bacterial Biotransformation [12]: Compound NOT metabolized
- Bacterial Biotransformation [13]: Compound NOT metabolized
- Bacterial Biotransformation [14]: Compound NOT metabolized
- Bacterial Biotransformation [15]: Compound metabolized
- Bacterial Biotransformation [16]: Compound metabolized
- Bacterial Biotransformation [17]: Compound metabolized
- Bacterial Biotransformation [18]: Compound metabolized
- Bacterial Biotransformation [19]: Compound metabolized
- Bacterial Biotransformation [20]: Compound metabolized

SMILES: Br.CN(C)CCCC1(c2ccc(F)cc2)OCc2cc(C#N)ccc21 (stereo not given) [CITALOPRAM HYDROBROMIDE]
- Bacterial Biotransformation [1]: Compound NOT metabolized
- Bacterial Biotransformation [2]: Compound NOT metabolized
- Bacterial Biotransformation [3]: Compound NOT metabolized
- Bacterial Biotransformation [4]: Compound NOT metabolized
- Bacterial Biotransformation [5]: Compound metabolized
- Bacterial Biotransformation [6]: Compound NOT metabolized
- Bacterial Biotransformation [7]: Compound NOT metabolized
- Bacterial Biotransformation [8]: Compound metabolized
- Bacterial Biotransformation [9]: Compound metabolized
- Bacterial Biotransformation [10]: Compound metabolized
- Bacterial Biotransformation [11]: Compound NOT metabolized
- Bacterial Biotransformation [12]: Compound metabolized
- Bacterial Biotransformation [13]: Compound NOT metabolized
- Bacterial Biotransformation [14]: Compound NOT metabolized
- Bacterial Biotransformation [15]: Compound metabolized
- Bacterial Biotransformation [16]: Compound metabolized
- Bacterial Biotransformation [17]: Compound NOT metabolized
- Bacterial Biotransformation [18]: Compound NOT metabolized
- Bacterial Biotransformation [19]: Compound NOT metabolized
- Bacterial Biotransformation [20]: Compound metabolized

SMILES: CN(C)CCC=C1c2ccccc2C=Cc2ccccc21 [CYCLOBENZAPRINE]
- Bacterial Biotransformation [1]: Compound NOT metabolized
- Bacterial Biotransformation [2]: Compound NOT metabolized
- Bacterial Biotransformation [3]: Compound metabolized
- Bacterial Biotransformation [4]: Compound NOT metabolized
- Bacterial Biotransformation [5]: Compound metabolized
- Bacterial Biotransformation [6]: Compound metabolized
- Bacterial Biotransformation [7]: Compound metabolized
- Bacterial Biotransformation [8]: Compound metabolized
- Bacterial Biotransformation [9]: Compound metabolized
- Bacterial Biotransformation [10]: Compound metabolized
- Bacterial Biotransformation [11]: Compound metabolized
- Bacterial Biotransformation [12]: Compound NOT metabolized
- Bacterial Biotransformation [13]: Compound metabolized
- Bacterial Biotransformation [14]: Compound NOT metabolized
- Bacterial Biotransformation [15]: Compound metabolized
- Bacterial Biotransformation [16]: Compound metabolized
- Bacterial Biotransformation [17]: Compound metabolized
- Bacterial Biotransformation [18]: Compound metabolized
- Bacterial Biotransformation [19]: Compound metabolized
- Bacterial Biotransformation [20]: Compound NOT metabolized

SMILES: O=C(Nc1ccccc1)OCC(CN1CCCCC1)OC(=O)Nc1ccccc1 (stereo not given) [DIPERODON]
- Bacterial Biotransformation [1]: Compound NOT metabolized
- Bacterial Biotransformation [2]: Compound NOT metabolized
- Bacterial Biotransformation [3]: Compound metabolized
- Bacterial Biotransformation [4]: Compound NOT metabolized
- Bacterial Biotransformation [5]: Compound metabolized
- Bacterial Biotransformation [6]: Compound metabolized
- Bacterial Biotransformation [7]: Compound NOT metabolized
- Bacterial Biotransformation [8]: Compound NOT metabolized
- Bacterial Biotransformation [9]: Compound metabolized
- Bacterial Biotransformation [10]: Compound metabolized
- Bacterial Biotransformation [11]: Compound metabolized
- Bacterial Biotransformation [12]: Compound metabolized
- Bacterial Biotransformation [13]: Compound NOT metabolized
- Bacterial Biotransformation [14]: Compound NOT metabolized
- Bacterial Biotransformation [15]: Compound metabolized
- Bacterial Biotransformation [16]: Compound metabolized
- Bacterial Biotransformation [17]: Compound NOT metabolized
- Bacterial Biotransformation [18]: Compound NOT metabolized
- Bacterial Biotransformation [19]: Compound NOT metabolized
- Bacterial Biotransformation [20]: Compound metabolized

SMILES: CC(C)N(CCC(C(N)=O)(c1ccccc1)c1ccccn1)C(C)C.O=P(O)(O)O (stereo not given) [DISOPYRAMIDE PHOSPHATE]
- Bacterial Biotransformation [1]: Compound NOT metabolized
- Bacterial Biotransformation [2]: Compound NOT metabolized
- Bacterial Biotransformation [3]: Compound NOT metabolized
- Bacterial Biotransformation [4]: Compound NOT metabolized
- Bacterial Biotransformation [5]: Compound NOT metabolized
- Bacterial Biotransformation [6]: Compound NOT metabolized
- Bacterial Biotransformation [7]: Compound NOT metabolized
- Bacterial Biotransformation [8]: Compound NOT metabolized
- Bacterial Biotransformation [9]: Compound metabolized
- Bacterial Biotransformation [10]: Compound metabolized
- Bacterial Biotransformation [11]: Compound NOT metabolized
- Bacterial Biotransformation [12]: Compound NOT metabolized
- Bacterial Biotransformation [13]: Compound NOT metabolized
- Bacterial Biotransformation [14]: Compound NOT metabolized
- Bacterial Biotransformation [15]: Compound metabolized
- Bacterial Biotransformation [16]: Compound NOT metabolized
- Bacterial Biotransformation [17]: Compound NOT metabolized
- Bacterial Biotransformation [18]: Compound NOT metabolized
- Bacterial Biotransformation [19]: Compound NOT metabolized
- Bacterial Biotransformation [20]: Compound metabolized

SMILES: C[C@@H](CO)NC(=O)[C@@H]1C=C2c3cccc4[nH]cc(c34)C[C@H]2N(C)C1.O=C(O)/C=C\C(=O)O [ERGONOVINE MALEATE]
- Bacterial Biotransformation [1]: Compound NOT metabolized
- Bacterial Biotransformation [2]: Compound NOT metabolized
- Bacterial Biotransformation [3]: Compound NOT metabolized
- Bacterial Biotransformation [4]: Compound NOT metabolized
- Bacterial Biotransformation [5]: Compound NOT metabolized
- Bacterial Biotransformation [6]: Compound NOT metabolized
- Bacterial Biotransformation [7]: Compound NOT metabolized
- Bacterial Biotransformation [8]: Compound metabolized
- Bacterial Biotransformation [9]: Compound metabolized
- Bacterial Biotransformation [10]: Compound metabolized
- Bacterial Biotransformation [11]: Compound metabolized
- Bacterial Biotransformation [12]: Compound NOT metabolized
- Bacterial Biotransformation [13]: Compound metabolized
- Bacterial Biotransformation [14]: Compound NOT metabolized
- Bacterial Biotransformation [15]: Compound metabolized
- Bacterial Biotransformation [16]: Compound NOT metabolized
- Bacterial Biotransformation [17]: Compound metabolized
- Bacterial Biotransformation [18]: Compound metabolized
- Bacterial Biotransformation [19]: Compound metabolized
- Bacterial Biotransformation [20]: Compound metabolized
